Laboratory results from PubChem BioAssay (NCI).
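1) Cells in 96-well plates. 2) Compound, 48 h, 5 concentrations. 3) Linear interpolation between surrounding doses. 4) Unreached endpoint = highest concentration. GI50 marks 50% less growth. Definition used: TGI = concentration required for complete inhibition of growth.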

Experiments:
Assay in all cases: DTP human tumour cell line panel, 48 h
786-0 renal = system: 786-0 renal
A498 renal = system: A498 renal
A549 NSCLC = system: A549 NSCLC
ACHN renal = system: ACHN renal
BT-549 breast = system: BT-549 breast
CAKI-1 renal = system: CAKI-1 renal
CCRF-CEM leukemia = system: CCRF-CEM leukemia
COLO 205 colon = system: COLO 205 colon
DU-145 prostate = system: DU-145 prostate
EKVX NSCLC = system: EKVX NSCLC
HCC-2998 colon = system: HCC-2998 colon
HCT-116 colon = system: HCT-116 colon
HCT-15 colon = system: HCT-15 colon
HL-60(TB) leukemia = system: HL-60(TB) leukemia
HOP-62 NSCLC = system: HOP-62 NSCLC
HOP-92 NSCLC = system: HOP-92 NSCLC
HS 578T breast = system: HS 578T breast
HT29 colon = system: HT29 colon
IGROV1 ovarian = system: IGROV1 ovarian
K-562 leukemia = system: K-562 leukemia
KM12 colon = system: KM12 colon
LOX IMVI melanoma = system: LOX IMVI melanoma
M14 melanoma = system: M14 melanoma
MALME-3M melanoma = system: MALME-3M melanoma
MCF7 breast = system: MCF7 breast
MDA-MB-231 breast = system: MDA-MB-231 breast
MDA-MB-435 = system: MDA-MB-435
MOLT-4 leukemia = system: MOLT-4 leukemia
NCI-H226 lung = system: NCI-H226 lung
NCI-H23 lung = system: NCI-H23 lung
NCI-H460 lung = system: NCI-H460 lung
NCI-H522 lung = system: NCI-H522 lung
NCI/ADR-RES ovarian = system: NCI/ADR-RES ovarian
OVCAR-3 ovarian = system: OVCAR-3 ovarian
OVCAR-4 ovarian = system: OVCAR-4 ovarian
OVCAR-5 ovarian = system: OVCAR-5 ovarian
OVCAR-8 ovarian = system: OVCAR-8 ovarian
PC-3 prostate = system: PC-3 prostate
RPMI-8226 leukemia = system: RPMI-8226 leukemia
RXF 393 renal = system: RXF 393 renal
SF-268 CNS = system: SF-268 CNS
SF-295 CNS = system: SF-295 CNS
SF-539 CNS = system: SF-539 CNS
SK-MEL-2 melanoma = system: SK-MEL-2 melanoma
SK-MEL-28 melanoma = system: SK-MEL-28 melanoma
SK-MEL-5 melanoma = system: SK-MEL-5 melanoma
SK-OV-3 ovarian = system: SK-OV-3 ovarian
SN12C renal = system: SN12C renal
SNB-19 CNS = system: SNB-19 CNS
SNB-75 CNS = system: SNB-75 CNS
SR leukemia = system: SR leukemia
SW-620 colon = system: SW-620 colon
T-47D breast = system: T-47D breast
TK-10 renal = system: TK-10 renal
U251 CNS = system: U251 CNS
UACC-257 melanoma = system: UACC-257 melanoma
UACC-62 melanoma = system: UACC-62 melanoma
UO-31 renal = system: UO-31 renal

SMILES: Clc1ccc(CCC(Cn2ccnc2)Sc2c(Cl)cccc2Cl)cc1 (stereo unspecified)
- GI50 (786-0 renal): 3.49 µM
- TGI (786-0 renal): 12.4 µM
- GI50 (A498 renal): 1.59 µM
- TGI (A498 renal): 6.66 µM
- GI50 (A549 NSCLC): 3.5 µM
- TGI (A549 NSCLC): 14.5 µM
- GI50 (ACHN renal): 4.32 µM
- TGI (ACHN renal): 15.1 µM
- GI50 (BT-549 breast): 4.3 µM
- TGI (BT-549 breast): 15.1 µM
- GI50 (CAKI-1 renal): 2.6 µM
- TGI (CAKI-1 renal): 10.5 µM
- GI50 (CCRF-CEM leukemia): 3.4 µM
- TGI (CCRF-CEM leukemia): 14.1 µM
- GI50 (COLO 205 colon): 3.14 µM
- TGI (COLO 205 colon): 11.1 µM
- GI50 (DU-145 prostate): 5.05 µM
- TGI (DU-145 prostate): 16.8 µM
- GI50 (EKVX NSCLC): 2.64 µM
- TGI (EKVX NSCLC): 17 µM
- GI50 (HCC-2998 colon): 2.85 µM
- TGI (HCC-2998 colon): 11.8 µM
- GI50 (HCT-116 colon): 2.13 µM
- TGI (HCT-116 colon): 5.3 µM
- GI50 (HCT-15 colon): 3.54 µM
- TGI (HCT-15 colon): 13.7 µM
- GI50 (HL-60(TB) leukemia): 2.85 µM
- TGI (HL-60(TB) leukemia): 5.72 µM
- GI50 (HOP-62 NSCLC): 6.03 µM
- TGI (HOP-62 NSCLC): 19.4 µM
- GI50 (HOP-92 NSCLC): 1.79 µM
- TGI (HOP-92 NSCLC): 7.23 µM
- GI50 (HS 578T breast): 3.28 µM
- TGI (HS 578T breast): 19.5 µM
- GI50 (HT29 colon): 1.78 µM
- TGI (HT29 colon): 3.77 µM
- GI50 (IGROV1 ovarian): 4.45 µM
- TGI (IGROV1 ovarian): 18.1 µM
- GI50 (K-562 leukemia): 3.28 µM
- TGI (K-562 leukemia): 11.7 µM
- GI50 (KM12 colon): 3.19 µM
- TGI (KM12 colon): 11.2 µM
- GI50 (LOX IMVI melanoma): 2.11 µM
- TGI (LOX IMVI melanoma): 5.11 µM
- GI50 (M14 melanoma): 4.29 µM
- TGI (M14 melanoma): 14.7 µM
- GI50 (MALME-3M melanoma): 2.92 µM
- TGI (MALME-3M melanoma): 8.21 µM
- GI50 (MCF7 breast): 3.43 µM
- TGI (MCF7 breast): 13.2 µM
- GI50 (MDA-MB-231 breast): 3.9 µM
- TGI (MDA-MB-231 breast): 18.8 µM
- GI50 (MDA-MB-435): 2.78 µM
- TGI (MDA-MB-435): 10.3 µM
- GI50 (MOLT-4 leukemia): 2.89 µM
- TGI (MOLT-4 leukemia): 8.21 µM
- GI50 (NCI-H226 lung): 5.59 µM
- TGI (NCI-H226 lung): 35.1 µM
- GI50 (NCI-H23 lung): 3.41 µM
- TGI (NCI-H23 lung): 15.5 µM
- GI50 (NCI-H460 lung): 3.07 µM
- TGI (NCI-H460 lung): 10.8 µM
- GI50 (NCI-H522 lung): 2.37 µM
- TGI (NCI-H522 lung): 7.5 µM
- GI50 (NCI/ADR-RES ovarian): 3 µM
- TGI (NCI/ADR-RES ovarian): 11.7 µM
- GI50 (OVCAR-3 ovarian): 3.34 µM
- TGI (OVCAR-3 ovarian): 10.8 µM
- GI50 (OVCAR-4 ovarian): 3.58 µM
- TGI (OVCAR-4 ovarian): 16.5 µM
- GI50 (OVCAR-5 ovarian): 6.56 µM
- TGI (OVCAR-5 ovarian): 20.4 µM
- GI50 (OVCAR-8 ovarian): 3.15 µM
- TGI (OVCAR-8 ovarian): 14.3 µM
- GI50 (PC-3 prostate): 2.64 µM
- TGI (PC-3 prostate): 12.6 µM
- GI50 (RPMI-8226 leukemia): 3.25 µM
- TGI (RPMI-8226 leukemia): > 100 µM
- GI50 (RXF 393 renal): 2.57 µM
- TGI (RXF 393 renal): 13.8 µM
- GI50 (SF-268 CNS): 4.36 µM
- TGI (SF-268 CNS): 20.2 µM
- GI50 (SF-295 CNS): 2.56 µM
- TGI (SF-295 CNS): 11.9 µM
- GI50 (SF-539 CNS): 4.71 µM
- TGI (SF-539 CNS): 17.8 µM
- GI50 (SK-MEL-2 melanoma): 3.02 µM
- TGI (SK-MEL-2 melanoma): 7.29 µM
- GI50 (SK-MEL-28 melanoma): 7.03 µM
- TGI (SK-MEL-28 melanoma): 19.5 µM
- GI50 (SK-MEL-5 melanoma): 2.08 µM
- TGI (SK-MEL-5 melanoma): 4.88 µM
- GI50 (SK-OV-3 ovarian): 10.9 µM
- TGI (SK-OV-3 ovarian): 22.8 µM
- GI50 (SN12C renal): 2.82 µM
- TGI (SN12C renal): 14.9 µM
- GI50 (SNB-19 CNS): 5.07 µM
- TGI (SNB-19 CNS): 48.7 µM
- GI50 (SNB-75 CNS): 15.4 µM
- TGI (SNB-75 CNS): 36.4 µM
- GI50 (SR leukemia): 3.64 µM
- TGI (SR leukemia): 24 µM
- GI50 (SW-620 colon): 3.43 µM
- TGI (SW-620 colon): 13.9 µM
- GI50 (T-47D breast): 2.25 µM
- TGI (T-47D breast): 10.5 µM
- GI50 (TK-10 renal): 3.52 µM
- TGI (TK-10 renal): 11.9 µM
- GI50 (U251 CNS): 3.23 µM
- TGI (U251 CNS): 14 µM
- GI50 (UACC-257 melanoma): 3.39 µM
- TGI (UACC-257 melanoma): 13 µM
- GI50 (UACC-62 melanoma): 2.8 µM
- TGI (UACC-62 melanoma): 12.5 µM
- GI50 (UO-31 renal): 3.07 µM
- TGI (UO-31 renal): 13.8 µM
